In the supplement of paper PMC10307832:

Columns and labels:
Test in all cases: relative viability (nuclei count vs DMSO), 5 days (fraction); higher = more cells survive
4EGI-1 + Pictilisib = compound: O=C(O)C(Cc1ccccc1[N+](=O)[O-])=NNc1nc(-c2ccc(Cl)c(Cl)c2)cs1 (mixture of isomers) [4EGI-1] + CS(=O)(=O)N1CCN(Cc2cc3nc(-c4cccc5[nH]ncc45)nc(N4CCOCC4)c3s2)CC1 [Pictilisib] (partner 1 µM)
Method in brief: (§1)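 Lung cancer cell lines were seeded in 1536-well plates and dosed by pin tool the next day, with either a single drug or a fixed anchor-drug dose combined with five library-drug doses (not always all listed) spaced in √10 steps. Five days later, one step fixed the cells and stained their nuclei (final 0.05% Triton X-100, 1% formaldehyde, 1 ug/ml Hoechst), and nuclei were counted on 4× images. Relative viability is the nuclei count in treated wells divided by the count in vehicle wells, and each value is the median of duplicate plates.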

4EGI-1 + Trametinib = compound: O=C(O)C(Cc1ccccc1[N+](=O)[O-])=NNc1nc(-c2ccc(Cl)c(Cl)c2)cs1 (mixture of isomers) [4EGI-1] + CC(=O)Nc1cccc(-n2c(=O)n(C3CC3)c(=O)c3c(Nc4ccc(I)cc4F)n(C)c(=O)c(C)c32)c1 [Trametinib] (partner 0.02 µM)
Method in brief: as §1

4EGI-1 + Vorinostat = compound: O=C(O)C(Cc1ccccc1[N+](=O)[O-])=NNc1nc(-c2ccc(Cl)c(Cl)c2)cs1 (mixture of isomers) [4EGI-1] + O=C(CCCCCCC(=O)Nc1ccccc1)NO [Vorinostat] (partner 1 µM)
Method in brief: as §1

XMD8-85 + Phenformin = compound: CN1CCN(CC1)C2=CC(=C(C=C2)NC3=NC=C4C(=N3)N(C5=CC=CC=C5C(=O)N4C)C)OC [XMD8-85] + N=C(N)NC(=N)NCCc1ccccc1 [Phenformin] (partner 250 µM)
Method in brief: as §1

Row | Cell Line | relative viability (4EGI-1 + Pictilisib; first compound 0.5 µM) | relative viability (4EGI-1 + Pictilisib; first compound 1.581 µM) | relative viability (4EGI-1 + Pictilisib; first compound 5 µM) | relative viability (4EGI-1 + Pictilisib; first compound 15.81 µM) | relative viability (4EGI-1 + Pictilisib; first compound 50 µM) | relative viability (4EGI-1 + Trametinib; first compound 0.5 µM) | relative viability (4EGI-1 + Trametinib; first compound 1.581 µM) | relative viability (4EGI-1 + Trametinib; first compound 5 µM) | relative viability (4EGI-1 + Trametinib; first compound 15.81 µM) | relative viability (4EGI-1 + Trametinib; first compound 50 µM) | relative viability (4EGI-1 + Vorinostat; first compound 0.5 µM) | relative viability (4EGI-1 + Vorinostat; first compound 1.581 µM) | relative viability (4EGI-1 + Vorinostat; first compound 5 µM) | relative viability (4EGI-1 + Vorinostat; first compound 15.81 µM) | relative viability (4EGI-1 + Vorinostat; first compound 50 µM) | relative viability (XMD8-85 + Phenformin; first compound 0.08 µM) | relative viability (XMD8-85 + Phenformin; first compound 0.253 µM) | relative viability (XMD8-85 + Phenformin; first compound 0.8 µM) | relative viability (XMD8-85 + Phenformin; first compound 2.53 µM) | relative viability (XMD8-85 + Phenformin; first compound 8 µM)
1 | NCI-H2009 | 1.08 | 0.772 | 1.06 | 0.843 | 0.169 | 0.339 | 0.28 | 0.306 | 0.24 | 0.139 | 0.798 | 0.701 | 0.822 | 0.736 | 0.375 | 0.496 | 0.504 | 0.496 | 0.42 | 0.306
2 | NCI-H596 | 0.439 | 0.394 | 0.394 | 0.4 | 0.352 | 1.09 | 0.83 | 0.918 | 0.661 | 0.545 | 0.648 | 0.495 | 0.6 | 0.475 | 0.375 | 0.571 | 0.749 | 0.636 | 0.709 | 0.8
3 | HARA | 0.48 | 0.428 | 0.46 | 0.375 | 0.266 | 0.882 | 0.632 | 0.944 | 0.539 | 0.211 | 0.545 | 0.429 | 0.525 | 0.47 | 0.127 | 0.455 | 0.515 | 0.427 | 0.42 | 0.26
4 | UMC-11 | 1.01 | 0.989 | 0.896 | 0.87 | 0.587 | 0.984 | 0.71 | 0.771 | 0.873 | 0.493 | 0.448 | 0.408 | 0.449 | 0.446 | 0.296 | 0.337 | 0.348 | 0.398 | 0.33 | 0.232
5 | NCI-H460 | 0.381 | – | 0.366 | 0.331 | 0.261 | 0.245 | 0.0821 | 0.109 | 0.133 | 0.018 | 0.713 | 0.353 | 0.714 | 0.436 | 0.0364 | 0.377 | 0.59 | 0.545 | 0.578 | 0.1
6 | NCI-H322M | 0.56 | 0.467 | 0.527 | 0.443 | 0.5 | 0.525 | – | 0.476 | 0.514 | 0.452 | 0.998 | – | 1.05 | 0.8 | 0.482 | 0.74 | – | 0.749 | 0.819 | 0.479
7 | NCI-H1734 | 0.52 | 0.359 | 0.463 | 0.397 | 0.316 | 0.73 | 0.521 | 0.684 | 0.761 | 0.483 | 0.965 | 0.67 | 0.966 | 0.545 | 0.329 | 0.397 | 0.331 | 0.369 | 0.382 | 0.348
8 | NCI-H2170 | 0.316 | 0.306 | 0.319 | 0.253 | 0.22 | 0.956 | 0.773 | 0.876 | 0.866 | 0.645 | 0.936 | 0.749 | 0.842 | 0.699 | 0.585 | 0.4 | 0.431 | 0.447 | 0.41 | 0.366
9 | HCC-15 | 0.921 | 0.705 | 0.755 | 0.728 | 0.574 | 0.405 | 0.378 | 0.392 | 0.375 | 0.281 | 0.863 | 0.812 | 0.809 | 0.686 | 0.513 | 0.465 | 0.415 | 0.451 | 0.468 | 0.265
10 | NCI-H1651 | 0.627 | 0.632 | 0.576 | 0.508 | 0.21 | 0.914 | 0.775 | 0.863 | 0.796 | 0.831 | 0.523 | 0.477 | 0.629 | 0.481 | 0.408 | 0.349 | 0.312 | 0.265 | 0.366 | 0.298
11 | LOU-NH91 | 0.532 | – | 0.539 | 0.478 | 0.484 | 0.812 | – | 0.764 | 0.704 | 0.724 | 0.993 | – | 0.964 | 0.782 | 0.529 | 0.661 | 0.774 | – | 0.835 | 0.523
12 | NCI-H3122 | 0.599 | 0.531 | 0.632 | 0.635 | 0.412 | 0.235 | 0.246 | 0.233 | 0.232 | 0.305 | 1.04 | 1.11 | 1.03 | 1.11 | 0.773 | 0.388 | 0.383 | 0.389 | 0.373 | 0.32
13 | NCI-H1395 | 0.638 | – | 0.735 | 0.567 | 0.346 | 1.34 | – | 1.06 | 1.1 | 0.7 | 0.833 | – | 0.858 | 0.669 | 0.397 | 0.483 | 0.421 | 0.447 | 0.414 | 0.409
14 | HCC-44 | 0.75 | 0.515 | 0.653 | 0.527 | 0.299 | 1.04 | 0.948 | 0.994 | 0.921 | 0.507 | 1.06 | 0.872 | 0.988 | 0.916 | 0.566 | 0.241 | 0.267 | 0.184 | 0.205 | 0.108
15 | EPLC-272H | 0.338 | 0.306 | 0.369 | 0.293 | 0.205 | 0.308 | – | 0.339 | 0.249 | 0.226 | 0.563 | 0.493 | 0.337 | 0.295 | 0.12 | 0.281 | 0.272 | 0.318 | 0.358 | 0.272
16 | PC-3 [JPC-3] | 0.772 | 0.826 | 0.706 | – | 0.458 | 0.82 | – | 0.621 | 0.399 | 0.47 | 0.753 | – | 0.867 | 0.418 | 0.307 | 0.431 | 0.446 | 0.467 | 0.537 | 0.514
